Assay results taken from patent publication US7964609B2, “Use of mGluR5 antagonists for the treatment of gerd” (AstraZeneca AB, priority 2002, dated 2011).

Tested on: transient lower esophageal sphincter relaxations (TLESRs)
Assay: Screening for compounds active against TLESR, Barostat model (air infusion to an intragastric pressure of 10±1 mmHg)
Type: in vivo, Adult Labrador retrievers
Settings: dose 1 μmol/kg/h, infusion during 60 min
Protocol: Adult Labrador retrievers of both genders, trained to stand in a Pavlov sling, are used. Mucosa-to-skin esophagostomies are formed and the dogs are allowed to recover completely before any experiments are done. In brief, after fasting for approximately 17 h with free supply of water, a multilumen sleeve/sidehole assembly ([…], Adelaide, South Australia) is introduced through the esophagostomy to measure gastric, lower esophageal sphincter (LES) and esophageal pressures. The assembly is perfused with water using a low-compliance manometric perfusion pump ([…], Adelaide, South Australia). An air-perfused tube is passed in the oral direction to measure swallows, and an antimony electrode monitored pH, 3 cm above the LES. All signals are amplified and acquired on a personal computer at 10 Hz. When a baseline measurement free from fasting gastric/LES phase III motor activity has been obtained, placebo (0.9% NaCl) or test compound is administered intravenously (i.v., 0.5 ml/kg) in a foreleg vein. […] Immediately following the meal, air is insufflated at 40 ml/min. In an alternative model (Barostat model), the infusion of the nutrient meal is followed by air infusion at a rate of 500 ml/min until a intragastric pressure of 10±1 mmHg is obtained. […]

N#Cc1cc(F)cc(-c2nc(-c3ccc(F)cn3)no2)c1 [3-fluoro-5-[3-(5-fluoropyridin-2-yl)-1,2,4-oxadiazol-5-yl]benzonitrile]
% INHIBITION ± SEM (N): 70 ± 4 (3) %
